Measured values taken from US12491229B2, “Stabilized peptide composition” (Shionogi & Co., Ltd., priority 2014, dated 2025).
Ends that are not written are not given here.

Legend:
Format in all cases: physicochemical
[1] = Solubility study 1 of each peptide against solution pH; details: pH 2-12, peptide mixed at 3 mg/mL in water for injection adjusted with hydrochloride or sodium hydroxide solution; FIG. 1
Method: Solubility of the peptides described as SEQ ID NOs: 1-5 was evaluated with the condition of pH 2-12. Hydrochloride solution or sodium hydroxide solution was added to water for injection to adjust pH, and each peptide was mixed with the adjusted solution, where the peptide concentration was set to 3 mg/mL. The mixed solution was filtered, the filtered solution was diluted with 10-20 parts of water for injection, and peak area of each peptide was obtained by liquid chromatography (same test procedure described above). From peak area of each peptide, dilution ratio of the filtered solution, peak area and concentration of each standard solution described above, peptide concentration was obtained.

[2] = Solubility study 2 of each peptide against pH (white turbidity on decreasing pH); design: key: ∘: dissolution; x: white turbidity; details: peptide 1.5 mg/g, pH decreased gradually with hydrochloride solution
Method: As shown in the study 1 described above, when the peptide was mixed directly with water for injection, the bulk was formed, and it was difficult to dissolve the bulk. So, solubility of peptides was evaluated thermodynamically by dissolving the peptide completely once with high pH, and decreasing the solution pH gradually to check pH when white turbidity was observed.
The peptide described as SEQ ID NO: 1 or SEQ ID NO: 2 was dissolved into the solution with pH10 and solubility was examined by decreasing the solution pH in each. 15 mg of the peptide described as SEQ ID NO: 1 or SEQ ID NO: 2 was mixed with water, 0.1 mol/L sodium hydroxide solution was added for dissolution, and pH was adjusted to 10. Peptide concentration was adjusted to 1.5 mg/g. In each sample solution, hydrochloride solution was added to decrease pH gradually, and the appearance of the solution was checked.

[3] = Solution stability of each peptide against pH; details: for stability in the solution state: conclusion from studies on stability in solution with different pH
Method: Content and related substances were measured in accordance with the method of liquid chromatography described in general test section in Japan Pharmacopeia. To prepare the test sample, water for injection was added to the lyophilized sample, and each peptide concentration was adjusted to 0.12 mg/mL. Peak area of each peptide in the sample and the one in each standard of the drug substance were obtained, and content was calculated from dilution ratio and ratio of peak area in the sample to one in each standard described below. Residual of the content in the stability test was against the content at the time when the lyophilized sample was prepared. Related substances were calculated by ratio of peak area of the target related substance to all related substances and drug substances in each sample solution. The level of increase of the related substances was evaluated by the difference from the related substance at the moment when the lyophilized sample was prepared.
Standard solution for measuring content of the peptide described as SEQ ID NO: 1 or SEQ ID NO: 2 was prepared in each by dissolving the peptide described above into 1.6 mg/mL phosphate solution and by adjusting each peptide concentration into 0.15 mg/mL. Standard solution for measuring content of the peptide described as SEQ ID NO: 3, SEQ ID NO: 4 or SEQ ID NO: 5 was prepared in each by dissolving the peptide described above into 12.1 mg/mL of 2-amnino-2-hydroxymethyl-1,3-propanediol aqueous solution and by adjusting each peptide concentration to 0.15 mg/mL. For the stationary phase of the liquid chromatography, column with octadecyl group was used, and the measurement was performed by gradient elution method. Flow rate in the measurement was set to 1.0 mL/min.
Stability of the peptide described as SEQ ID NOs: 1-5 was evaluated in each.
The sample solution prepared with the compositions above was stored for 6 hours at 25° C. Then, the level of increase of related substances derived from the peptides described as SEQ ID NO: 1, SEQ ID NO: 2 or SEQ ID NO: 3 was measured in each, and residual of the peptides described as SEQ ID NO: 4 or SEQ ID NO: 5 was measured in each. The analytical procedure for the related substances and peptide contents was described above.

With EYYELFVNI [SEQ ID NO: 1, EYYELFVNI] as the sequence, how does the “Solubility of each peptide against pH” value [1] read?
Its value is “decreased with decreasing pH of the solution”.

What about the Solution state ([2]; pH 5.4) of the same sequence?
Its Solution state is “x”.

And the Solution state ([2]; pH 5.6)?
The Solution state was “∘”.

What about the Solution state ([2]; pH 6) of the same sequence?
The Solution state was “∘”.

And the Solution state ([2]; pH 6.6)?
The Solution state was “∘”.

What about the Solution state ([2]; pH 7.9) of the same sequence?
The Solution state was “∘”.

What about the Solution state ([2]; pH 10) of the same sequence?
Its Solution state is “∘”.

And the “stability in the solution state” value [3]?
The value was “good stability”.

Which “Solubility of each peptide against pH” value [1] does the source give for IYNEYIYDL [SEQ ID NO: 2, IYNEYIYDL] here?
The value was “decreased with decreasing pH of the solution”.

And the Solution state ([2]; pH 5)?
The Solution state was “x”.

And the Solution state ([2]; pH 5.5)?
Its Solution state is “∘”.

And the Solution state ([2]; pH 7)?
Its Solution state is “∘”.

And the Solution state ([2]; pH 8)?
The Solution state was “∘”.

What about the Solution state ([2]; pH 9) of the same sequence?
Its Solution state is “∘”.

What about the Solution state ([2]; pH 10) of the same sequence?
Its Solution state is “∘”.

What about the “stability in the solution state” value [3] of the same sequence?
Its value is “poor stability”.

For “KTVNELQNL (listed as Homo sapiens) [SEQ ID NO: 5, peptide derived from KOC1 protein]”, which “stability in the solution state” value [3] is on record?
Its value is “poor stability”.

And the “residual of the peptide” value ([3]; five-peptide solution (Table 2) pH 8-11 stored for 6 hours at 25° C., FIGS. 2-4, 2-5)?
The value was “prominently decreased and solution stability decreased with increasing solution pH”.

Which “stability in the solution state” value [3] does the source give for “RYCNLEGPPI (listed as Homo sapiens) [SEQ ID NO: 3, peptide derived from URLC10 protein]” here?
Its value is “poor stability”.

What about the “level of increase of related substances derived from the peptide” value ([3]; five-peptide solution (Table 2) pH 8-11 stored for 6 hours at 25° C., FIGS. 2-1 to 2-3) of the same sequence?
Its value is “increased and solution stability decreased, when solution pH was 10.0-11.0”.

What does the source list for VYGIRLEHF [SEQ ID NO: 4, VYGIRLEHF]?
Solubility of each peptide against pH [1]: low when solution pH was around neutral; stability in the solution state [3]: good stability
